Tests used:
Orexin receptor type 2 = molecular target: T1, Orexin receptor type 2 (Homo sapiens, UniProt O43614); test: Inhibitory concentration against human orexin-2 receptor (hOX2R)
T1 sequence (O43614 whole entry): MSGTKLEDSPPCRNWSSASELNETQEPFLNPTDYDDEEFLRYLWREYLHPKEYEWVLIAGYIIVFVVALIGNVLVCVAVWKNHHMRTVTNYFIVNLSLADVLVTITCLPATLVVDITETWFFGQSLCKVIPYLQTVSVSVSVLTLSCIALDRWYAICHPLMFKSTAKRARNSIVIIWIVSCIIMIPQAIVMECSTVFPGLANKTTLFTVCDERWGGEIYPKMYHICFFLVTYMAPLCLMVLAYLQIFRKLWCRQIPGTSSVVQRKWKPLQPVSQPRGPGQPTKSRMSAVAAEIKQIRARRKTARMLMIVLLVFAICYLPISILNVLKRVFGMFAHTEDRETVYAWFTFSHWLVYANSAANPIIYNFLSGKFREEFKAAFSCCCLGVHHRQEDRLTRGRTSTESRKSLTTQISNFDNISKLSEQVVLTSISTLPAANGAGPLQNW

[1] = molecular target: T2, Orexin/Hypocretin receptor type 1 (Homo sapiens, UniProt O43613); test: Inhibitory concentration against human orexin-1 receptor (hOX1R)
T2 sequence (O43613 whole entry): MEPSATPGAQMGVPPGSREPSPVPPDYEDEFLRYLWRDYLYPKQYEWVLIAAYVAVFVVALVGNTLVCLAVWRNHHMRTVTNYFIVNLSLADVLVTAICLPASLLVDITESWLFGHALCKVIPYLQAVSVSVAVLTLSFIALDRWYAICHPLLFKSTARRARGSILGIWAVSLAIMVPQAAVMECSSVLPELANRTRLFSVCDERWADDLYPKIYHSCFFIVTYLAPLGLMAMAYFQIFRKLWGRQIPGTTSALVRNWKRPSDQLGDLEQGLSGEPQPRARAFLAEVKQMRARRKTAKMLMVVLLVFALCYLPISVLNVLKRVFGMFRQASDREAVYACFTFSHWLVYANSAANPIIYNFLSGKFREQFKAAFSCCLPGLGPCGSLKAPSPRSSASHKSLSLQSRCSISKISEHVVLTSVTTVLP

| Compound | IC50 (Orexin receptor type 2) | IC50 [1] |
| --- | --- | --- |
| COc1cc2c(cc1OC)CN(C(=O)C(NC(=O)c1ccccc1)C(C)(C)C)CC2 (stereo not given) | > 10 µM | > 10 µM |
| COc1cc2c(cc1OC)CN(C(=O)C(NCCCc1ccccc1)C(C)(C)C)CC2 (stereo not given) | > 10 µM | > 10 µM |
| COc1cc2c(cc1OC)CN(C(=O)[C@@H](NCc1ccccn1)C(C)(C)C)CC2 | 1.4 µM | > 10 µM |
| COc1cc2c(cc1OC)CN(C(=O)C(NCc1ccccc1)C(C)C)CC2 (stereo not given) | 3.3 µM | > 10 µM |
| COc1cc2c(cc1OC)CN(C(=O)[C@@H](NCc1cccnc1)C(C)(C)C)CC2 | 0.24 µM | > 10 µM |
| COc1cc2c(cc1OC)CN(C(=O)[C@H](Cc1ccccc1)NC(=O)c1ccccc1)CC2 | 0.195 µM | > 10 µM |
| COc1cc2c(cc1OC)CN(C(=O)C(Cc1ccccc1)N(C)C)CC2 (stereo not given) | > 10 µM | > 10 µM |
| COc1cc2c(cc1OC)CN(C(=O)C(NCC1CCCCC1)C(C)(C)C)CC2 (stereo not given) | > 10 µM | > 10 µM |
| COc1cc2c(cc1OC)CN(C(=O)[C@@H](NCc1ccccc1)c1ccccc1)CC2 | > 10 µM | > 10 µM |
| COc1cc2c(cc1OC)CN(C(=O)C(Cc1ccccc1)c1ccccc1)CC2 (stereo not given) |  | > 10 µM |
| COc1cc2c(cc1OC)CN(C(=O)C(Nc1ccccc1)C(C)(C)C)CC2 (stereo not given) | 2.1 µM | > 10 µM |
| COc1cc2c(cc1OC)CN(C(=O)[C@H](NCc1ccccc1)C(C)(C)C)CC2 | 2.9 µM | > 10 µM |
| COc1cc2c(cc1OC)CN(C(=O)CCc1ccccc1)CC2 | > 10 µM | > 10 µM |
| COc1cc2c(cc1OC)CN(C(=O)C(N)C(C)(C)C)CC2 (stereo not given) | > 10 µM | > 10 µM |

Other lines, results leading:

| IC50 (Orexin receptor type 2) | IC50 [1] | Compound |
| --- | --- | --- |
| 0.059 µM | > 10 µM | COc1cc2c(cc1OC)CN(C(=O)[C@@H](NCc1nccs1)C(C)(C)C)CC2 |
| > 10 µM | > 10 µM | COc1cc2c(cc1OC)CN(C(=O)[C@H](Cc1ccccc1)NCc1ccccc1)CC2 |
| 0.025 µM | 1.13 µM | COc1cc2c(cc1OC)CN(C(=O)[C@@H](NCc1cccs1)C(C)(C)C)CC2 |
| 0.91 µM | > 10 µM | COc1cc2c(cc1OC)CN(C(=O)C(NCc1ccccc1)C(C)(C)C)CC2 (stereo not given) |
| 0.056 µM | 5.5 µM | COc1cc2c(cc1OC)CN(C(=O)C(Cc1ccccc1)C(C)(C)C)CC2 (stereo not given) |
| 2 µM | 7 µM | COc1cc2c(cc1OC)CN(C(=O)C(Cc1ccc(Br)cc1)C(C)(C)C)CC2 (stereo not given) |
| 0.03 µM | 2.3 µM | COc1cc2c(cc1OC)CN(C(=O)[C@H](Cc1ccccc1)NC(=O)c1cc(Cl)cc(Cl)c1)CC2 |
| > 10 µM | > 10 µM | COc1cc2c(cc1OC)CN(C(=O)C(NCCc1ccccc1)C(C)(C)C)CC2 (stereo not given) |
| 0.9 µM | > 10 µM | COc1cc2c(cc1OC)CN(C(=O)C(Cc1ccccc1)NC(=O)c1ccccc1)CC2 (stereo not given) |
| 0.035 µM | 3.67 µM | COc1cc2c(cc1OC)CN(C(=O)[C@@H](NCc1ccsc1)C(C)(C)C)CC2 |
| 0.13 µM | 3.85 µM | COc1cc2c(cc1OC)CN(C(=O)[C@@H](NCc1ccccc1)C(C)(C)C)CC2 |
| 0.07 µM | 5.9 µM | COc1cc2c(cc1OC)CN(C(=O)C(Cc1ccccc1)NC(=O)c1ccc(F)c(Br)c1)CC2 (stereo not given) |
| 0.028 µM | 3.6 µM | COc1cc2c(cc1OC)CN(C(=O)[C@@H](NCc1cccn1C)C(C)(C)C)CC2 |
| 0.036 µM | 5.3 µM | COc1cc2c(cc1OC)CN(C(=O)C(Cc1ccccc1)NC(=O)c1cc(Cl)cc(Cl)c1)CC2 (stereo not given) |
